Assay: Anticancer human tumor 997537-175-T-J1-PDC patient-derived colon adenocarcinoma cell line growth inhibition [POLQ]
Conditions: 997537-175-T-J1-PDC complex spheroid viability, combination with POLQ inhibitors; for IC50: curve of first compound; for viability, T/C: stronger effect = lower value
Summary of the method: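 Complex spheroid viability model combining PDC tumour cells with endothelial (HUVEC) and MSC stromal cells. Novobiocin, ART-558 or RP6685 were tested singly and in combination with standard and investigational anticancer drugs. Each was titrated in half-log steps from near clinical Cmax, or from 10 microM where Cmax was unknown.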

[1] = second compound 0.0316 µM, first compound 0.0316 µM
[2] = second compound 0.0316 µM, first compound 0.1 µM
[3] = second compound 0.0316 µM, first compound 0.316 µM
[4] = second compound 0.0316 µM, first compound 1 µM
[5] = second compound 0.0316 µM, first compound 3.16 µM
[6] = second compound 0.0316 µM, first compound 10 µM
[7] = second compound 0.1 µM, first compound 0.0316 µM
[8] = second compound 0.1 µM, first compound 0.1 µM
[9] = second compound 0.1 µM, first compound 0.316 µM
[10] = second compound 0.1 µM, first compound 1 µM
[11] = second compound 0.1 µM, first compound 3.16 µM
[12] = second compound 0.1 µM, first compound 10 µM
[13] = second compound 0.316 µM, first compound 0.0316 µM
[14] = second compound 0.316 µM, first compound 0.1 µM
[15] = second compound 0.316 µM, first compound 0.316 µM
[16] = second compound 0.316 µM, first compound 1 µM
[17] = second compound 0.316 µM, first compound 3.16 µM
[18] = second compound 0.316 µM, first compound 10 µM
[19] = second compound 1 µM, first compound 0.0316 µM
[20] = second compound 1 µM, first compound 0.1 µM
[21] = second compound 1 µM, first compound 0.316 µM
[22] = second compound 1 µM, first compound 1 µM
[23] = second compound 1 µM, first compound 3.16 µM
[24] = second compound 1 µM, first compound 10 µM
[25] = second compound 3.16 µM, first compound 0.0316 µM
[26] = second compound 3.16 µM, first compound 0.1 µM
[27] = second compound 3.16 µM, first compound 0.316 µM
[28] = second compound 3.16 µM, first compound 1 µM
[29] = second compound 3.16 µM, first compound 3.16 µM
[30] = second compound 3.16 µM, first compound 10 µM
[31] = second compound 10 µM, first compound 0.0316 µM
[32] = second compound 10 µM, first compound 0.1 µM
[33] = second compound 10 µM, first compound 0.316 µM
[34] = second compound 10 µM, first compound 1 µM
[35] = second compound 10 µM, first compound 3.16 µM
[36] = second compound 10 µM, first compound 10 µM
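Note: luminescence signal used as a surrogate for viable cells; spheroids exposed to drugs for seven days before readout.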

In the case of `CCc1cc2c(N3CCc4c(cc(Cn5ccnc5)cc4-c4cn(C)nc4C(F)(F)F)C3=O)cc(C)nc2c(OC)n1` + Nc1ccc(C#CCN(C(=O)Cc2ncc(C(F)(F)F)cc2C(F)(F)F)c2ccc(F)cc2)nn1, the IC50 (second compound 0.0316 µM) is reported as greater than 10 µM, the IC50 (second compound 0.1 µM) is reported as greater than 10 µM and the IC50 (second compound 0.316 µM) is reported as greater than 10 µM. It also gave an IC50 (second compound 1 µM) greater than 10 µM, an IC50 (second compound 3.16 µM) greater than 10 µM and an IC50 (second compound 10 µM) greater than 10 µM. For the same molecule, the viability, T/C [1] was 96%, the viability, T/C [2] was 98.5% and the viability, T/C [3] was 98.1%. For the same molecule, the viability, T/C [4] was 86.8%, the viability, T/C [5] was 76% and the viability, T/C [6] was 67.4%. It also gave a viability, T/C [7] of 88.7%, a viability, T/C [8] of 97% and a viability, T/C [9] of 77.7%. The viability, T/C [10] was 79.6%, the viability, T/C [11] was 68.3% and the viability, T/C [12] was 74.9%. For the same molecule, the viability, T/C [13] was 93.4%, the viability, T/C [14] was 87.3% and the viability, T/C [15] was 99.5%. For the same molecule, the viability, T/C [16] was 96.5%, the viability, T/C [17] was 84% and the viability, T/C [18] was 77.5%. The viability, T/C [19] was 96.4%, the viability, T/C [20] was 103% and the viability, T/C [21] was 84%. For the same molecule, the viability, T/C [22] was 80.9%, the viability, T/C [23] was 78.9% and the viability, T/C [24] was 51%. The viability, T/C [25] was 102%, the viability, T/C [26] was 103% and the viability, T/C [27] was 99.7%. It also gave a viability, T/C [28] of 89.7%, a viability, T/C [29] of 65.4% and a viability, T/C [30] of 73.7%. It also gave a viability, T/C [31] of 105%, a viability, T/C [32] of 104% and a viability, T/C [33] of 87.6%. It also gave a viability, T/C [34] of 96.8%, a viability, T/C [35] of 71.8% and a viability, T/C [36] of 76.7%.
Molecule `O=C(Nc1ccc(O)c(NS(=O)(=O)c2ccc(F)cc2)c1)c1ccc(-c2ccccc2)cc1` + COC1C(OC(N)=O)C(O)C(Oc2ccc3c(O)c(NC(=O)c4ccc(O)c(CC=C(C)C)c4)c(=O)oc3c2C)OC1(C)C has an IC50 (second compound 0.0316 µM) greater than 10 µM, an IC50 (second compound 0.1 µM) greater than 10 µM and an IC50 (second compound 0.316 µM) greater than 10 µM. It also gave an IC50 (second compound 1 µM) greater than 10 µM, an IC50 (second compound 3.16 µM) greater than 10 µM and an IC50 (second compound 10 µM) greater than 10 µM. The viability, T/C [1] was 98.4%, the viability, T/C [2] was 109% and the viability, T/C [3] was 104%. It also gave a viability, T/C [4] of 103%, a viability, T/C [5] of 102% and a viability, T/C [6] of 97.3%. It also gave a viability, T/C [7] of 112%, a viability, T/C [8] of 94.4% and a viability, T/C [9] of 97%. For the same molecule, the viability, T/C [10] was 88.8%, the viability, T/C [11] was 96% and the viability, T/C [12] was 95.1%. It also gave a viability, T/C [13] of 108%, a viability, T/C [14] of 102% and a viability, T/C [15] of 105%. It also gave a viability, T/C [16] of 96%, a viability, T/C [17] of 102% and a viability, T/C [18] of 97.3%. The viability, T/C [19] was 98.3%, the viability, T/C [20] was 98.7% and the viability, T/C [21] was 86%. For the same molecule, the viability, T/C [22] was 94%, the viability, T/C [23] was 93.9% and the viability, T/C [24] was 99.3%. The viability, T/C [25] was 97.5%, the viability, T/C [26] was 93.2% and the viability, T/C [27] was 91.8%. For the same molecule, the viability, T/C [28] was 90.2%, the viability, T/C [29] was 97.5% and the viability, T/C [30] was 98.8%. It also gave a viability, T/C [31] of 93.6%, a viability, T/C [32] of 95.7% and a viability, T/C [33] of 109%. It also gave a viability, T/C [34] of 91.5%, a viability, T/C [35] of 102% and a viability, T/C [36] of 91.5%.
`O=c1[nH]cc(F)c(=O)[nH]1` + COC1C(OC(N)=O)C(O)C(Oc2ccc3c(O)c(NC(=O)c4ccc(O)c(CC=C(C)C)c4)c(=O)oc3c2C)OC1(C)C gave an IC50 (second compound 0.0316 µM) greater than 10 µM, an IC50 (second compound 0.1 µM) greater than 10 µM and an IC50 (second compound 0.316 µM) greater than 10 µM. The IC50 (second compound 1 µM) was greater than 10 µM, the IC50 (second compound 3.16 µM) was greater than 10 µM and the IC50 (second compound 10 µM) was greater than 10 µM. For the same molecule, the viability, T/C [1] was 102%, the viability, T/C [2] was 102% and the viability, T/C [3] was 112%. For the same molecule, the viability, T/C [4] was 87.8%, the viability, T/C [5] was 78.7% and the viability, T/C [6] was 76.2%. The viability, T/C [7] was 86.3%, the viability, T/C [8] was 104% and the viability, T/C [9] was 104%. It also gave a viability, T/C [10] of 114%, a viability, T/C [11] of 102% and a viability, T/C [12] of 90.3%. For the same molecule, the viability, T/C [13] was 95.3%, the viability, T/C [14] was 103% and the viability, T/C [15] was 105%. It also gave a viability, T/C [16] of 87.7%, a viability, T/C [17] of 85.2% and a viability, T/C [18] of 97.2%. The viability, T/C [19] was 96.7%, the viability, T/C [20] was 108% and the viability, T/C [21] was 110%. The viability, T/C [22] was 89.9%, the viability, T/C [23] was 92.2% and the viability, T/C [24] was 87.5%. For the same molecule, the viability, T/C [25] was 108%, the viability, T/C [26] was 104% and the viability, T/C [27] was 101%. The viability, T/C [28] was 101%, the viability, T/C [29] was 103% and the viability, T/C [30] was 92.6%. For the same molecule, the viability, T/C [31] was 95.8%, the viability, T/C [32] was 98.2% and the viability, T/C [33] was 95.3%. It also gave a viability, T/C [34] of 84.2%, a viability, T/C [35] of 96.9% and a viability, T/C [36] of 85.3%.
